Data: US11365187B2, “Pesticidally active pyrazole derivatives” (SYNGENTA PARTICIPATIONS AG, priority 2017, dated 2022)
Read-outs that look alike come from different tables or passages of the source.

What was measured:
Format in all cases: in vivo
[1] = tested on: Myzus persicae (Green peach aphid); test: Myzus persicae feeding/contact activity on sunflower leaf discs; conditions: foliar, 144 h
Description: Myzus persicae (Green peach aphid): Feeding/Contact activity
(§1) Sunflower leaf discs were placed onto agar in a 24-well microtiter plate and sprayed with aqueous test solutions prepared from 10′000 ppm DMSO stock solutions. After drying, the leaf discs were infested with an aphid population of mixed ages. The samples were assessed for mortality 6 days after infestation.

[2] = tested on: Tetranychus urticae (Two-spotted spider mite); test: Tetranychus urticae feeding/contact activity on bean leaf discs; conditions: foliar, 192 h, read-out: mortality on mixed population (mobile stages)
Description: Tetranychus urticae (Two-spotted spider mite): Feeding/contact activity
Bean leaf discs on agar in 24-well microtiter plates were sprayed with aqueous test solutions prepared from 10′000 ppm DMSO stock solutions. After drying the leaf discs were infested with a mite population of mixed ages. The samples were assessed for mortality on mixed population (mobile stages) 8 days after infestation.

[3] = tested on: Euschistus heros (Neotropical Brown Stink Bug); test: Euschistus heros feeding/contact activity on soybean leaves; conditions: 120 h
Description: Euschistus heros (Neotropical Brown Stink Bug): Feeding/contact activity
Soybean leaves on agar in 24-well microtiter plates were sprayed with aqueous test solutions prepared from 10′000 ppm DMSO stock solutions. After drying the leaves were infested with N2 nymphs. The samples were assessed for mortality 5 days after infestation.

[4] = tested on: Plutella xylostella (Diamond back moth); test: Plutella xylostella feeding/contact activity on artificial diet; conditions: 120 h
Description: Plutella xylostella (Diamond back moth): Feeding/contact activity
24-well microtiter plates with artificial diet were treated with aqueous test solutions prepared from 10′000 ppm DMSO stock solutions by pipetting. After drying, the plates were infested with L2 larvae (10 to 15 per well). The samples were assessed for mortality 5 days after infestation.

[5] = tested on: Spodoptera littoralis (Egyptian cotton leaf worm); test: Spodoptera littoralis feeding/contact activity on cotton leaf discs; conditions: foliar, 72 h
Description: Spodoptera littoralis (Egyptian cotton leaf worm): Feeding/contact activity
Cotton leaf discs were placed onto agar in 24-well microtiter plates and sprayed with aqueous test solutions prepared from 10′000 ppm DMSO stock solutions. After drying the leaf discs were infested with five L1 larvae. The samples were assessed for mortality 3 days after infestation. […] 2, 3, 4, 5, 6, 7, 8, 9, 10, 11, 12, 13, 14, 15, 16, 17, 18, 19, 20, 21, 22, 23, 24, 25, 26, 27, 28 and 29.

[6] = tested on: Diabrotica balteata (Corn root worm); test: Diabrotica balteata (Corn root worm) mortality on sprayed maize sprouts; conditions: 96 h, application rate 200 ppm, L2 larvae, assessed 4 days after infestation, read-out: mortality
Description: Diabrotica balteata (Corn root worm):
Maize sprouts placed onto an agar layer in 24-well microtiter plates were treated with aqueous test solutions prepared from 10′000 ppm DMSO stock solutions by spraying. After drying, the plates were infested with L2 larvae (6 to 10 per well). The samples were assessed for mortality 4 days after infestation.

[7] = tested on: Thrips tabaci (Onion thrips); test: Thrips tabaci feeding/contact activity on sunflower leaf discs; conditions: foliar, 144 h, application rate 200 ppm, thrips population of mixed ages, assessed 6 days after infestation, read-out: mortality
Description: Thrips tabaci (Onion thrips): Feeding/Contact activity
as §1, with “on” for “onto”, “in” for “in a”, “plates” for “plate”, “drying” for “drying,”, “a thrips” for “an aphid”

[8] = application rate 200 ppm, aphid population of mixed ages, assessed 6 days after infestation, read-out: mortality
[9] = application rate 200 ppm, mite population of mixed ages, assessed 8 days after infestation
[10] = application rate 200 ppm, N2 nymphs, assessed 5 days after infestation, read-out: mortality
[11] = application rate 200 ppm, L2 larvae, assessed 5 days after infestation, read-out: mortality
[12] = application rate 200 ppm, L1 larvae, assessed 3 days after infestation, read-out: mortality

Measured: mortality at 200 ppm

CN(C(=O)c1cc(-c2cnn(-c3c(OC(F)F)c(C(F)(C(F)(F)F)C(F)(F)F)nn3C)c2)ccc1Cl)C1CC1 [Example 25, 2-chloro-N-cyclopropyl-5-[1-[4-(difluoromethoxy)-2-methyl-5-[1,2,2,2-tetrafluoro-1-(trifluoromethyl)ethyl]pyrazol-3-yl]pyrazol-4-yl]-N-methyl-benzamide]
≥ 80%: [1]; [8] | [2]; [9] | [3]; [10] | [4]; [11] | [5]; [12]

Cn1nc(C(F)(C(F)(F)F)C(F)(F)F)c(OC(F)F)c1-n1cc(-c2ccc(Cl)c(C(=O)N(CC#N)C3CC3)c2)cn1 [Example 16, 2-chloro-N-(cyanomethyl)-N-cyclopropyl-5-[1-[4-(difluoromethoxy)-2-methyl-5-[1,2,2,2-tetrafluoro-1-(trifluoromethyl)ethyl]pyrazol-3-yl]pyrazol-4-yl]benzamide]
≥ 80%: [1]; [8] | [2]; [9] | [3]; [10] | [4]; [11] | [5]; [12]

Cn1nc(C(F)(C(F)(F)F)C(F)(F)F)c(OC(F)F)c1-n1cc(-c2ccc(Cl)c(C(=O)NC3CC3)c2)cn1 [Example 17, 2-chloro-N-cyclopropyl-5-[1-[4-(difluoromethoxy)-2-methyl-5-[1,2,2,2-tetrafluoro-1-(trifluoromethyl)ethyl]pyrazol-3-yl]pyrazol-4-yl]benzamide]
≥ 80%: [1]; [8] | [2]; [9] | [3]; [10] | [4]; [11] | [5]; [12]

COCCCN(C(=O)c1cc(-c2cnn(-c3c(OC(F)F)c(C(F)(C(F)(F)F)C(F)(F)F)nn3C)c2)ccc1Cl)C1(C#N)CC1 [Example 6, 2-chloro-N-(1-cyanocyclopropyl)-5-[1-[4-(difluoromethoxy)-2-methyl-5-[1,2,2,2-tetrafluoro-1-(trifluoromethyl)ethyl]pyrazol-3-yl]pyrazol-4-yl]-N-(3-methoxypropyl)benzamide]
≥ 80%: [1]; [8] | [2]; [9] | [3]; [10] | [4]; [11] | [5]; [12]

Cn1nc(C(F)(C(F)(F)F)C(F)(F)F)c(OC(F)F)c1-n1cc(-c2ccc(Cl)c(C(=O)NC3(C#N)CC3)c2)cn1 [Example 1, 2-Chloro-N-(1-cyanocyclopropyl)-5-[1-[4-(difluoromethoxy)-2-methyl-5-[1,2,2,2-tetrafluoro-1-(trifluoromethyl)ethyl]pyrazol-3-yl]pyrazol-4-yl]benzamide]
≥ 80%: [6] | [1]; [8] | [2]; [9] | [3]; [10] | [7] | [4]; [11] | [5]; [12]

COCN(C(=O)c1cc(-c2cnn(-c3c(OC(F)F)c(C(F)(C(F)(F)F)C(F)(F)F)nn3C)c2)ccc1Cl)C1CC1 [Example 28, 2-chloro-N-cyclopropyl-5-[1-[4-(difluoromethoxy)-2-methyl-5-[1,2,2,2-tetrafluoro-1-(trifluoromethyl)ethyl]pyrazol-3-yl]pyrazol-4-yl]-N-(methoxymethyl)benzamide]
≥ 80%: [1]; [8] | [2]; [9] | [3]; [10] | [4]; [11] | [5]; [12]

CC(=O)N(C(=O)c1cc(-c2cnn(-c3c(OC(F)F)c(C(F)(C(F)(F)F)C(F)(F)F)nn3C)c2)ccc1Cl)C1(C#N)CC1 [Example 12, N-acetyl-2-chloro-N-(1-cyanocyclopropyl)-5-[1-[4-(difluoromethoxy)-2-methyl-5-[1,2,2,2-tetrafluoro-1-(trifluoromethyl)ethyl]pyrazol-3-yl]pyrazol-4-yl]benzamide]
≥ 80%: [6] | [1]; [8] | [2]; [9] | [3]; [10] | [7] | [4]; [11] | [5]; [12]

CCOC(=O)N(C(=O)c1cc(-c2cnn(-c3c(OC(F)F)c(C(F)(C(F)(F)F)C(F)(F)F)nn3C)c2)ccc1Cl)C1CC1 [Example 15, ethyl N-[2-chloro-5-[1-[4-(difluoromethoxy)-2-methyl-5-[1,2,2,2-tetrafluoro-1-(trifluoromethyl)ethyl]pyrazol-3-yl]pyrazol-4-yl]benzoyl]-N-cyclopropyl-carbamate]
≥ 80%: [1] | [2] | [3] | [4] | [5]

CCN(C(=O)c1cc(-c2cnn(-c3c(OC(F)F)c(C(F)(C(F)(F)F)C(F)(F)F)nn3C)c2)ccc1Cl)C1(C#N)CC1 [Example 3, 2-chloro-N-(1-cyanocyclopropyl)-5-[1-[4-(difluoromethoxy)-2-methyl-5-[1,2,2,2-tetrafluoro-1-(trifluoromethyl)ethyl]pyrazol-3-yl]pyrazol-4-yl]-N-ethyl-benzamide]
≥ 80%: [6] | [1]; [8] | [2]; [9] | [3]; [10] | [7] | [4]; [11] | [5]; [12]

Cn1nc(C(F)(C(F)(F)F)C(F)(F)F)c(OC(F)F)c1-n1cc(-c2cnc(Cl)c(C(=O)NC3(C#N)CC3)c2)cn1 [Example 19, 2-chloro-N-(1-cyanocyclopropyl)-5-[1-[4-(difluoromethoxy)-2-methyl-5-[1,2,2,2-tetrafluoro-1-(trifluoromethyl)ethyl]pyrazol-3-yl]pyrazol-4-yl]pyridine-3-carboxamide]
≥ 80%: [6] | [1]; [8] | [2]; [9] | [3]; [10] | [7] | [4]; [11] | [5]; [12]

CCOC(=O)N(C(=O)c1cc(-c2cnn(-c3c(OC(F)F)c(C(F)(C(F)(F)F)C(F)(F)F)nn3C)c2)ccc1Cl)C1(C#N)CC1 [Example 8, ethyl N-[2-chloro-5-[1-[4-(difluoromethoxy)-2-methyl-5-[1,2,2,2-tetrafluoro-1-(trifluoromethyl)ethyl]pyrazol-3-yl]pyrazol-4-yl]benzoyl]-N-(1-cyanocyclopropyl)carbamate]
≥ 80%: [1] | [2] | [3] | [4] | [5]

CN(C(=O)c1cc(-c2cnn(-c3c(OC(F)F)c(C(F)(C(F)(F)F)C(F)(F)F)nn3C)c2)ccc1Cl)C1(C#N)CC1 [Example 4, 2-chloro-N-(1-cyanocyclopropyl)-5-[1-[4-(difluoromethoxy)-2-methyl-5-[1,2,2,2-tetrafluoro-1-(trifluoromethyl)ethyl]pyrazol-3-yl]pyrazol-4-yl]-N-methyl-benzamide]
≥ 80%: [6] | [1]; [8] | [2]; [9] | [3]; [10] | [7] | [4]; [11] | [5]; [12]

COCCN(C(=O)c1cc(-c2cnn(-c3c(OC(F)F)c(C(F)(C(F)(F)F)C(F)(F)F)nn3C)c2)ccc1Cl)C1(C#N)CC1 [Example 7, 2-chloro-N-(1-cyanocyclopropyl)-5-[1-[4-(difluoromethoxy)-2-methyl-5-[1,2,2,2-tetrafluoro-1-(trifluoromethyl)ethyl]pyrazol-3-yl]pyrazol-4-yl]-N-(2-methoxyethyl)benzamide]
≥ 80%: [1]; [8] | [2]; [9] | [3]; [10] | [4]; [11] | [5]; [12]
